Here are results for nine compounds from patent US11958865B1, “Leucine-rich repeat kinase 2 (LRRK2) inhibitors” (H. Lundbeck A/S, priority 2022, dated 2024).

Where two headings read alike, the source gives them in different places.

Data set [1] in a line: Rat brain disposition after oral gavage. It counts as in vivo, male Sprague-Dawley rats. As to conditions: male, Sprague-Dawley, oral 5 mg/kg, 1 h, mean ± stdev. How it is done: Brain disposition was evaluated in male Sprague-Dawley rats (n=3, standard body weight). Briefly, test compound was formulated as a simple suspension (0.5% HPMC in water) then administered by oral gavage (10 mg/kg, 10 mL/kg or 5 mg/kg, 10 mL/kg). At the designated time point (0.5 or 1 h post dose) rats were sacrificed and terminal blood and brain samples taken. Isolated plasma and brain homogenates were extracted by standard protein precipitation in acetonitrile, containing internal standard. Diluted extracts were analyzed by liquid-chromatography coupled with tandem mass spectrometry detection (LC-MS/MS) using a bioanalytical method. Concentrations of test compound in plasma and brain were quantified against matrix matched calibration standards. The total plasma and brain concentration time data are presented in Table 4 alongside the calculated brain Kp (total brain concentration:total plasma concentration ratio).
The total brain-to-plasma partition coefficient (brain Kp) is given by the ratio of the total brain concentration and total plasma concentration of the compound according to the equation below: […]
Based on the measured rat fuplasma and fubrain values and the brain Kp the unbound brain-to-plasma partition coefficient (brain Kp,uu for each compound was calculated. The Kp,uu parameter describes the extent of brain penetration for each compound, i.e. the parameter gives a direct quantitative description of how the blood-brain barrier (BBB) handles the compounds regarding passive transport and active influx/efflux. The brain Kp,uu is given by the equation below: […]

Data set [2] is described as follows: Hepatic microsomal intrinsic clearance assay. The format is in vitro ADME. As to conditions: pooled liver microsomes, pH 7.4; liver microsomes 0.5 mg/mL; 1 μM; NADPH; 1 hour at 37° C.; LLOQ 0.36 L/h/kg. The method, then: Compounds (final concentration 1 μM, 1% organic) of the invention were incubated for 1 hour at 37° C., with shaking, in phosphate buffer (pH 7.4) containing commercially sourced pooled liver microsomes (final concentration 0.5 mg/mL). […] At designated time points (0, 5, 10, 20, 30 and 60 minutes) ice-cold acetonitrile containing internal standard (300 μL) was added to an incubation well to stop the reaction then mixed and centrifuged (3220 g for 20 minutes at 4° C.). Supernatant was diluted (1:4) with deionized water then analyzed by LC-MS/MS.

The nature of data set [3]: Fraction unbound in rat plasma and brain homogenate by equilibrium dialysis. The format is in vitro ADME, male Sprague-Dawley rat. The following applies: 1 μM, equilibrium dialysis 5 h at 37° C. How it is done: The fraction of unbound compound in male Sprague-Dawley rat plasma (fuplasma) and brain homogenate (fubrain) were determined by equilibrium dialysis using 96-well HTD-dialysis plates with dialysis membranes (molecular weight cut off 12-14 KDa). One side of the HTD-dialysis plate was loaded with matrix (plasma or brain homogenate) and the other side with buffer (100 mM sodium phosphate buffer, pH 7.4). Test compounds were dissolved in DMSO then spiked (5 μL of 0.2 mM) into blank (995 μL) plasma or diluted brain homogenate (1:4 ratio in phosphate buffer) giving a final nominal concentration 1 μM (≤0.5% DMSO). The matrices were loaded into respective chambers and equilibrated against phosphate buffer for 5 h at 37° C. (in a humidified air incubator with 5% CO2 with shaking). Samples from both chambers (buffer and plasma or brain homogenate) were aliquoted to fresh 96-well polypropylene plates then matrix matched using an equal volume of opposite blank matrix before extraction with cold solvent (3 volumes acetonitrile) containing an appropriate bioanalytical internal standard. After centrifugation (20 min, 3200 g, 4° C.) the supernatants were diluted with appropriate volumes of water and compound concentrations were quantified by LC/MS-MS against matrix matched calibration standards. The fuplasma and fubrain were calculated according to equation 4 below.
[formula] Where [F] is the compound concentration on the buffer (receiver) side of the membrane; [T] is the compound concentration on the plasma or brain (donor) side of the membrane; D is the matrix dilution factor which is determined as D=4 for brain matrix and D=1 for plasma matrix in these assays.

The next data set has as its target LRRK2 G2019S (Homo sapiens (Human), UniProt Q5S007, G2019S). In words: LRRK2 G2019S LanthaScreen TR-FRET kinase activity assay. It counts as biochemical. As to conditions: 250 pM kinase, 1.3 mM ATP, n≥2 tests. How it is done: (§1) LRRK2 kinase activity was measured using a LanthaScreen kinase activity assay available from Invitrogen (Life Technologies Corporation). […] The phosphorylated peptide is recognized by a terbium-labelled phospho-specific anti-LRRKtide antibody (pLRRKtide antibody), obtainable from Life Technologies Corporation) and, subsequently, the phosphorylated LRRKtide can be quantified by the extent of TR-FRET between the terbium donor and fluorescein acceptor.
(§2) As discussed above, this mutation increases the kinase activity relative to the wild type. The kinase reactions were performed in a 20 μL volume in 384-well plates. The kinase reaction buffer consisted of 50 mM Tris pH 8.5, 0.01% BRIJ-35, 10 mM MgCl2, 1 mM EGTA, and 2 mM DTT.
(§3) The mixture was further incubated for 30 minutes at RT. TR-FRET was measured by excitation of the terbium-donor with 340 nm light and subsequent (delay time […]) measurement of terbium and fluorescein emission at 495 nm and 520 nm, respectively, over a time window of […]. The measurement was repeated 30 times for fluorescein and 30 times for terbium emission with a […] between repeats. TR-FRET measurements were performed on a Biotek Synergy plate. The TR-FRET signal was calculated as the emission-ratio at 520 nm over 495 nm.
(§4) Test compound potency (IC50) was estimated by nonlinear regression using the sigmoidal dose-response (variable slope) using Xlfit 4 (IDBS, Guildford, Surrey, UK, model 205). Were the IC50 could not be determined the % inhibition at the highest tested concentration is given by equation 1. Equation (1): y=(A+((B−A)/(1+((C/x)^D)))) (1)
(§5) where y is the normalized TR-TRET ratio measurement for a given concentration of test compound, x is the concentration of test compound, A is the estimated efficacy (% inhibition) at infinite compound dilution, and B is the maximal efficacy (% inhibition). C is the IC50 value and D is the Hill slope coefficient. IC50 estimates were obtained from independent experiment and the logarithmic average was calculated.

In data set [4] the target is T1, LRRK2 WT (Homo sapiens (Human), UniProt Q5S007). In words: LRRK2 wild-type ADP-Glo kinase assay. As to conditions: read-out: LRRK2 WT ADPGlo IC50. The format is biochemical. How it is done: LRRK2 kinase activity was measured using an ADP-Glo kinase assay from Promega Corporation. The assay is a homogeneous luminescence-based assay that measures ADP formed from a kinase reaction. The ADP is converted into ATP, which is used to generate light in a luciferase reaction. The luminescence generated correlates with kinase activity.
The LRRK2 kinase was obtained from Invitrogen (Life Technologies Corporation) and comprises residue 970 to 2527 of the full length human wild-type LRRK2 kinase. The kinase reactions were performed in a 10 μL volume in 384-well plates. The kinase reaction buffer consisted of 50 mM Tris pH 8.5, 0.01% BRIJ-35, 10 mM MgCl2, 1 mM EGTA, and 2 mM DTT.
The reaction mixture (10 μl total volume) was incubated for 3 hours at room temperature (RT, ca. 25° C.), before the reaction was terminated by addition of 10 μl ADP-Glo reagent. The mixture was further incubated for 60 minutes at RT before addition of 20 μl Kinase detection reagent from the ADP-Glo assay kit. Luminescence signal was measure on a BMG Labtech Pherastar FSX multimode microplate reader. The signal integration time was 0.5 s.
Test compound potency (Ki,app) was estimated by nonlinear regression using the tight-binding fit model in GeneData Screener (GeneData AG). In cases where the Ki,app could not be determined, the % inhibition at the highest tested concentration is reported. The tight-binding fit model is given by euquation (2). […] Ki,app is the apparent dissociation constant of the inhibitor. The IC50 can be calculated as given by equation (3). Equation (3): IC50=Ki,app+[E]/2 (3) IC50 estimates were obtained from independent experiment and the logarithmic average was calculated.

The target of data set [5] is T1, LRRK2 WT. In words: LRRK2 wild-type LanthaScreen TR-FRET kinase activity assay. It counts as biochemical. The following applies: 1 nM kinase, 1.3 mM ATP, n≥2 tests. The method, then: as §1, §2, §3, §4, §5
Where [6] appears, read: 0.5 nM kinase, 1.0 mM ATP, IC50=Ki,app+[E]/2, n≥2 tests.

T1 sequence (Q5S007 970-2527): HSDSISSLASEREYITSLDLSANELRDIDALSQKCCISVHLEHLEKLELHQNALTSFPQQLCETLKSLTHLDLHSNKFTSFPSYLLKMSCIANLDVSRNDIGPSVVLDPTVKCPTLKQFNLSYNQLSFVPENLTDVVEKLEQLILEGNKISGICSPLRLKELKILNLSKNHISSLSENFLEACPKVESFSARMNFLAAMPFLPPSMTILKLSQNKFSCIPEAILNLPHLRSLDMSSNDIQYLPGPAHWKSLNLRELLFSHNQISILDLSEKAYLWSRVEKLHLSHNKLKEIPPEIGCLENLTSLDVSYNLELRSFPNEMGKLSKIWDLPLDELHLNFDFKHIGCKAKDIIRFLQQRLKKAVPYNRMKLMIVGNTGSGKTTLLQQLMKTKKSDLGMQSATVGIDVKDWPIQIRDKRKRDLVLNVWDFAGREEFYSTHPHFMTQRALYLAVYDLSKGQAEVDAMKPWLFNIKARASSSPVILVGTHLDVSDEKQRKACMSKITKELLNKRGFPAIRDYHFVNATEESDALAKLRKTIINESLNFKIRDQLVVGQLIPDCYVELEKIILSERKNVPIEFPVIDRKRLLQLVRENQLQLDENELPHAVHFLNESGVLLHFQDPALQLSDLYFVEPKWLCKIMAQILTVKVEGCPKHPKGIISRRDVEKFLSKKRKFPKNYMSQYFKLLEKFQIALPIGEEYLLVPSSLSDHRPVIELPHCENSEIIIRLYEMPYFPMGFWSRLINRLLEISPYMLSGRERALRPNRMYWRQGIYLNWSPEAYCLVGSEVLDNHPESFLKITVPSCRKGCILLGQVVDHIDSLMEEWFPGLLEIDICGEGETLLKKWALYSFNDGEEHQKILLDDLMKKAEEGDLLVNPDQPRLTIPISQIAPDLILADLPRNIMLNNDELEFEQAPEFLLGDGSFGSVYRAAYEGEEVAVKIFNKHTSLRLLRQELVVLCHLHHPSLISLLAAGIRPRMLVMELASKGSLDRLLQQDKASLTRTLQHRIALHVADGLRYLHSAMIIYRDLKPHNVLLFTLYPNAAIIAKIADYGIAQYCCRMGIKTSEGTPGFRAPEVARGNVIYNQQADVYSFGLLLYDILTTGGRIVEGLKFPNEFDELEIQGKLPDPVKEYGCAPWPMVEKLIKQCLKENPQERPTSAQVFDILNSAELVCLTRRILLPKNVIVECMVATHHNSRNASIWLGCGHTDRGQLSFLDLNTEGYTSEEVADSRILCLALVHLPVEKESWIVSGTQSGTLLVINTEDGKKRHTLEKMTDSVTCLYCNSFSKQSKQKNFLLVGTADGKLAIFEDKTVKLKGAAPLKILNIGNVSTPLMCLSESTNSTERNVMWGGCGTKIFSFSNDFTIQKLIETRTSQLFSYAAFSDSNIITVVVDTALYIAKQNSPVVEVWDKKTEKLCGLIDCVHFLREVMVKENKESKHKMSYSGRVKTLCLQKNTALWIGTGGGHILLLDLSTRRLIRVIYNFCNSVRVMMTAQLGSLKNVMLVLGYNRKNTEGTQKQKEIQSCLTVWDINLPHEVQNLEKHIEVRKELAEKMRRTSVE
LRRK2 G2019S, sequence (Q5S007 970-2527 G2019S): as the sequence (Q5S007 970-2527) above, with G1050S counted along it

With `CCc1c2c(nn1-c1cccnc1OC)OCCCn1nc(Cl)c3cnc(nc31)N2` [Example 5, 8-Chloro-3-ethyl-2-(2-methoxypyridin-3-yl)-2,4,12,13-tetrahydro-11H-5,7-(azenometheno)dipyrazolo[3,4-b:5′,1′-g][1]oxa[4,6,8]triazacycloundecine], the Kp at 1 h in data set [1] (brain, n=3) came out at 1.9 ± 0.3. The Kp uu at 1 h in data set [1] (brain, n=3) is 0.8 ± 0.13. In addition, the concentration at 1 h came out at 7 ± 3 ng/g in data set [1] (brain, n=3, read-out: Total brain concentration) and 4 ± 0.8 ng/mL in data set [1] (plasma, n=3, read-out: Total plasma concentration). In data set [2], this compound gave a CLint scaled at 1 μM of 23.2 mL/min/kg. In addition, the “fubrain (% free)” value in data set [3] (rat brain homogenate) was 5.2 % free. Also, the “fuplasma (% free)” value in data set [3] (rat plasma) amounted to 12.3 % free. The values for the IC50 on LRRK2 G2019S, at LRRK2 WT [4] (setting [6]) and at LRRK2 WT [5] were 1.4 nM, 0.41 nM and 4 nM, respectively.

`Cc1c2c(nn1-c1cccnc1OC(F)(F)F)OCCCn1nc(Cl)c3cnc(nc31)N2` [Example 20, 8-Chloro-3-methyl-2-(2-(trifluoromethoxy)pyridin-3-yl)-2,4,12,13-tetrahydro-11H-5,7-(azenometheno)dipyrazolo[3,4-b:5′,1′-g][1]oxa[4,6,8]triazacycloundecine] had a CLint scaled at 1 μM in data set [2] of 18.3 mL/min/kg. For the same compound, the IC50 at LRRK2 G2019S came to 1.1 nM; on LRRK2 WT [4] (setting [6]) it was 0.48 nM; on LRRK2 WT [5], 3.4 nM.

Compound `[2H]C([2H])([2H])c1c2c(nn1-c1cc(F)cnc1C)OCCCn1nc(Cl)c3cnc(nc31)N2` [Example 30, 8-Chloro-2-(5-fluoro-2-methylpyridin-3-yl)-3-(methyl-d3)-2,4,12,13-tetrahydro-11H-5,7-(azenometheno)dipyrazolo[3,4-b:5′,1′-g][1]oxa[4,6,8]triazacycloundecine] gave an intrinsic metabolic clearance (CLint scaled) at 1 μM in data set [2] of 14 mL/min/kg.

Compound `CCc1ncccc1-n1nc2c(c1C)Nc1ncc3c(Cl)nn(c3n1)CCCO2` [Example 4, 8-Chloro-2-(2-ethylpyridin-3-yl)-3-methyl-2,4,12,13-tetrahydro-11H-5,7-(azenometheno)dipyrazolo[3,4-b:5′,1′-g][1]oxa[4,6,8]triazacycloundecine] showed a CLint scaled at 1 μM in data set [2] of 23.8 mL/min/kg. For the same compound, the IC50 on LRRK2 G2019S was found to be 1.8 nM; at LRRK2 WT [4] (setting [6]) it was 0.82 nM; on LRRK2 WT [5], 7 nM.

Compound `[2H]C([2H])([2H])c1c2c(nn1-c1cc(C)cnc1C)OCCCn1nc(Cl)c3cnc(nc31)N2` [Example 27, 8-Chloro-2-(2,5-dimethylpyridin-3-yl)-3-(methyl-d3)-2,4,12,13-tetrahydro-11H-5,7-(azenometheno)dipyrazolo[3,4-b:5′,1′-g][1]oxa[4,6,8]triazacycloundecine] gave an intrinsic metabolic clearance (CLint scaled) at 1 μM in data set [2] of 8.17 mL/min/kg.

On to `COc1nnccc1-n1nc2c(c1C)Nc1ncc3c(Cl)nn(c3n1)CCCO2` [Example 21, 8-Chloro-2-(3-methoxypyridazin-4-yl)-3-methyl-2,4,12,13-tetrahydro-11H-5,7-(azenometheno)dipyrazolo[3,4-b:5′,1′-g][1]oxa[4,6,8]triazacycloundecine], for which, in data set [2], the CLint scaled at 1 μM is 25.7 mL/min/kg. Moreover, the IC50 amounted to 0.24 nM on LRRK2 G2019S, 0.45 nM on LRRK2 WT [4] (setting [6]) and 0.94 nM on LRRK2 WT [5].

`Cc1c2c(nn1-c1cccnc1C(F)(F)F)OCCCn1nc(Cl)c3cnc(nc31)N2` [Example 17, 8-Chloro-3-methyl-2-(2-(trifluoromethyl)pyridin-3-yl)-2,4,12,13-tetrahydro-11H-5,7-(azenometheno)dipyrazolo[3,4-b:5′,1′-g][1]oxa[4,6,8]triazacycloundecine]: the CLint scaled at 1 μM in data set [2] is 15.3 mL/min/kg. For the same compound, the IC50 was found to be 5.5 nM at LRRK2 G2019S, 3.1 nM on LRRK2 WT [4] (setting [6]) and 20 nM on LRRK2 WT [5].

Compound `[2H]C([2H])([2H])c1c2c(nn1-c1cccnc1OC)OCCCn1nc(Cl)c3cnc(nc31)N2` [Example 28, 8-Chloro-2-(2-methoxypyridin-3-yl)-3-(methyl-d3)-2,4,12,13-tetrahydro-11H-5,7-(azenometheno)dipyrazolo[3,4-b:5′,1′-g][1]oxa[4,6,8]triazacycloundecine] had a CLint scaled at 1 μM in data set [2] of 10.2 mL/min/kg. Moreover, the IC50 at LRRK2 G2019S was 0.23 nM; at LRRK2 WT [4], 0.63 nM; on LRRK2 WT [5], 0.76 nM.

In turn, `[2H]C([2H])([2H])c1c2c(nn1-c1cccnc1C)OCCCn1nc(Cl)c3cnc(nc31)N2` [Example 26, 8-Chloro-3-(methyl-d3)-2-(2-methylpyridin-3-yl)-2,4,12,13-tetrahydro-11H-5,7-(azenometheno)dipyrazolo[3,4-b:5′,1′-g][1]oxa[4,6,8]triazacycloundecine] showed an intrinsic metabolic clearance (CLint scaled) at 1 μM in data set [2] of 11.7 mL/min/kg.
